Laboratory results taken from article PMC8641298 (ACS infectious diseases, 2020).

Experiments:
adult S. mansoni = assay: WormAssay, average adult worm motility; type: cell-based, Schistosoma mansoni; details: 5 h; for WormAssay (average adult worm movement ± SD): DMSO control 104.1 ± 24.4; for EC50: Schistosoma mansoni, read-out: EC50 of paralysis measured by WormAssay
S. mansoni somules = assay: In vitro phenotypic screen of S. mansoni somules; type: cell-based, Schistosoma mansoni
[1] = system: acetylated α-tubulin in HEK293 cells; assay: HEK293 MT-stabilization assay; type: cell-based; details: 4 h
S. mansoni adults = assay: In vitro phenotypic screen of S. mansoni adults; type: cell-based, Schistosoma mansoni; details: for Phenotypic descriptors, adults 5 h / Phenotypic descriptors, adults 24 h / Phenotypic descriptors, adults 48 h: assays performed at 10 μM (footnote d)
HEK293 cytotoxicity = type: cell-based; details: human
HeLa cytotoxicity = type: cell-based; details: human, HeLa cells
[2] = HEK293 cells (method text: HEK 293T)
[3] = assays performed at 10 μM (footnote d)

Row | SMILES | WormAssay (average adult worm movement ± SD) (adult S. mansoni; 5 μM) | Phenotypic descriptors, somules (1 μM) 24 h (S. mansoni somules) | Phenotypic descriptors, somules (1 μM) 48 h (S. mansoni somules) | Phenotypic descriptors, somules (10 μM) 24 h (S. mansoni somules) | Phenotypic descriptors, somules (10 μM) 48 h (S. mansoni somules) | Fold-change in acetylated α-tubulin ([1]; 1 μM) | Phenotypic descriptors, adults (5 μM) 5 h (S. mansoni adults) | Phenotypic descriptors, adults (5 μM) 24 h (S. mansoni adults) | Phenotypic descriptors, adults (5 μM) 48 h (S. mansoni adults) | CC50 at 48 h (HEK293 cytotoxicity; [2]) | CC50 at 48 h (HeLa cytotoxicity) | EC50 (adult S. mansoni) | Fold-change in acetylated α-tubulin ([1]; 10 μM) | WormAssay (average adult worm movement ± SD) (adult S. mansoni; [3]) | Phenotypic descriptors, adults 5 h (S. mansoni adults) | Phenotypic descriptors, adults 24 h (S. mansoni adults) | Phenotypic descriptors, adults 48 h (S. mansoni adults) | Fold-change in acetylated α-tubulin (significance) ([1]; either 1 or 10 μM) | CC50 at 48 h (HEK293 cytotoxicity)
1 | C[C@H](Nc1nc(-c2ccc3ccccc3n2)nc(Cl)c1-c1c(F)cc(F)cc1F)C(F)(F)F [Compound 21, (S)-6-chloro-2-(quinolin-2-yl)-5-(2,4,6-trifluorophenyl)-N-(1,1,1-trifluoropropan-2-yl)pyrimidin-4-amine] | 75.3 ± 18.9 | N | N | R, deg | R, deg | 1.95 ± 0.2 (1 μM) fold | N | N | S, on sides | – | – | – | – | – | – | – | – | – | –
2 | Fc1cc(F)c(-c2cnc(-c3cccs3)nc2Cl)c(F)c1 [Compound 32, 4-chloro-2-(thiophen-2-yl)-5-(2,4,6-trifluorophenyl)pyrimidine] | 78.0 ± 20.1 | N | N | R, S | N | – | N | N | N | – | – | – | – | – | – | – | – | – | –
3 | O=C(C1CCCCC1)N1CC(=O)N2CCc3ccccc3C2C1 (centres unmarked) [PZQ, praziquantel, reference compound] | 1.8 ± 5.1 | – | – | – | – | – | – | – | – | – | – | – | – | – | – | – | – | – | –
4 | C[C@@H](Nc1nc(-c2cccs2)nc(Cl)c1-c1c(F)cc(F)cc1F)C(F)(F)F [Compound 27, (R)-6-chloro-2-(thiophen-2-yl)-5-(2,4,6-trifluorophenyl)-N-(1,1,1-trifluoropropan-2-yl)pyrimidin-4-amine] | 6.3 ± 9.3 | R, S | R | R, I | R, I | – | I, on sides | I, on sides | I, on sides | 29400 nM | 27700 ± 10400 nM | – | – | – | – | – | – | – | –
5 | CC(C)[C@@H](C)Nc1nc(-c2cccs2)nc(Cl)c1-c1c(F)cc(F)cc1F [Compound 28, (R)-6-chloro-N-(3-methylbutan-2-yl)-2-(thiophen-2-yl)-5-(2,4,6-trifluorophenyl)pyrimidin-4-amine] | 2.9 ± 8.8 | R, I | R, I | R, I | R, I | – | I, on sides | I, on sides | I, on sides | 26800 nM | 17400 ± 2000 nM | ~1000 nM | – | – | – | – | – | – | –
6 | C[C@H](Nc1nc(-c2cccs2)nc(Cl)c1-c1c(F)cc(F)cc1F)C(F)(F)F [Compound 25, (S)-6-chloro-2-(thiophen-2-yl)-5-(2,4,6-trifluorophenyl)-N-(1,1,1-trifluoropropan-2-yl)pyrimidin-4-amine] | 5.5 ± 9.8 | R, S | R, S | rounding and immobility and R, I | R, I, | – | I, on sides | I, on sides | I, on sides | 1270 ± 106 nM | 1660 ± 612 nM | ~1000 nM | 3.0 ± 0.6 (10 μM) fold | – | – | – | – | – | –
7 | C[C@H](Nc1nc(-c2ccco2)nc(Cl)c1-c1c(F)cc(F)cc1F)C(F)(F)F [Compound 24, (S)-6-chloro-2-(furan-2-yl)-5-(2,4,6-trifluorophenyl)-N-(1,1,1-trifluoropropan-2-yl)pyrimidin-4-amine] | – | N | N | N | Deg, unc | – | – | – | – | – | – | – | 2.7 ± 0.2 (10 μM) fold | 56.0 ± 21.5^d | S^d | Unc, on sides^d | S, dark, on sides^d | – | –
8 | C[C@H](Nc1nc(-c2nccs2)nc(Cl)c1-c1c(F)cc(F)cc1F)C(F)(F)F [Compound 23, (S)-6-chloro-2-(thiazol-2-yl)-5-(2,4,6-trifluorophenyl)-N-(1,1,1-trifluoropropan-2-yl)pyrimidin-4-amine] | – | Deg, unc | Deg, unc | Deg, unc | Deg, unc | – | – | – | – | 8 ± 2 nM | 6 ± 1 nM | – | – | 62.1 ± 26.4^d | Unc, dark^d | Unc, dark^d | Unc, dark^d | – | –
9 | CC1(CNc2nc(-c3cnccn3)nc(Cl)c2-c2c(F)cc(F)cc2F)N=N1 [Compound 22, 6-chloro-N-((3-methyl-3H-diazirin-3-yl)methyl)-2-(pyrazin-2-yl)-5-(2,4,6-trifluorophenyl)-pyrimidin-4-amine] | 131.4 ± 27.4 | R, deg | R, deg | R, deg | R, deg | 2.68 ± 0.04 (1 μM) fold | N | N | Unc | 50 ± 10 nM | 40 ± 12 nM | – | – | – | – | – | – | – | –
10 | CC(C)[C@H](C)Nc1nc(-c2cccs2)nc(Cl)c1-c1c(F)cc(F)cc1F [Compound 29, (S)-6-chloro-N-(3-methylbutan-2-yl)-2-(thiophen-2-yl)-5-(2,4,6-trifluorophenyl)pyrimidin-4-amine] | 5.0 ± 11.5 | R, S | R, S | R, I | R, I | – | I, on sides | I, on sides | I, on sides | 29100 nM | 8780 ± 1390 nM | ~1000 nM | – | – | – | – | – | – | –
11 | CC1(CNc2nc(-c3cccs3)nc(Cl)c2-c2c(F)cc(F)cc2F)N=N1 [Compound 30, 6-chloro-N-((3-methyl-3H-diazirin-3-yl)methyl)-2-(thiophen-2-yl)-5-(2,4,6-trifluorophenyl)-pyrimidin-4-amine] | 12.9 ± 18.1 | S | S, R | R, I | R, I | – | S, on sides | S, on sides | S, on sides | 1270 ± 35 nM | 3890 ± 1860 nM | – | – | – | – | – | – | – | –
12 | C[C@H](Nc1nc(-c2cccs2)ncc1-c1c(F)cc(F)cc1F)C(F)(F)F [Compound 26, (S)-2-(thiophen-2-yl)-5-(2,4,6-trifluorophenyl)-N-(1,1,1-trifluoropropan-2-yl)pyrimidin-4-amine] | – | R, S | R | R, S | R, S | – | – | – | – | > 50000 nM | > 100000 nM | – | – | 11.0 ± 14.7^d | S^d | Unc, on sides^d | S, dark, on sides^d | NS^e | –
13 | CNCCCOc1cc(F)c(-c2c(Cl)nc3ncnn3c2N[C@@H](C)C(F)(F)F)c(F)c1 [Compound 12, cevipabulin, reference compound] | – | – | – | – | – | – | – | – | – | – | – | – | – | – | – | – | – | – | 28 nM
14 | C[C@H](Nc1cc(Cl)nc(-c2cccs2)n1)C(F)(F)F [Compound 31, (S)-6-chloro-2-(thiophen-2-yl)-N-(1,1,1-trifluoropropan-2-yl)pyrimidin-4-amine] | 89.0 ± 18.6 | R, unc | N | R, unc | N | – | N | N | N | – | – | – | – | – | – | – | – | – | –
